Laboratory results taken from US8461083B2, “Herbicidal compounds” (Syngenta Limited, priority 2008, dated 2013).

Columns and labels:
Assay type in all cases: in vivo
[1] = tested on: Alopecurus myosuroides (ALOMY); assay: Post-emergence herbicidal glasshouse test; conditions: post-emergence (sprayed after 8 days cultivation), evaluated after 13 days, 100=total damage to plant, 0=no damage to plant; for POST Application ALOMY, damage to plant: 1000 g/ha; for pest or weed control at 1000 g/ha: Alopecurus myosuroides, 312 h, read-out: POST Application ALOMY, damage to plant
Description: (§1) Seeds of a variety of test species were sown in standard soil in pots (Alopecurus myosuroides (ALOMY), Setaria faberi (SETFA), Echinochloa crus-galli (ECHCG), Solanum nigrum (SOLNI) and Amaranthus retoflexus (AMARE)). After cultivation for one day (pre-emergence) or after 8 days cultivation (post-emergence) under controlled conditions in a glasshouse (at 24/16° C., day/night; 14 hours light; 65% humidity), the plants were sprayed with an aqueous spray solution derived from the formulation of the technical active ingredient in acetone/water (50:50) solution containing 0.5% Tween 20 (polyoxyethelyene sorbitan monolaurate, CAS RN 9005-64-5). Compounds were applied at 1000 g/ha. The test plants were then grown in a glasshouse under controlled conditions in a glasshouse (at 24/16° C., day/night; 14 hours light; 65% humidity) and watered twice daily. After 13 days for pre and post-emergence, the test was evaluated (100=total damage to plant; 0=no damage to plant).

[2] = tested on: Amaranthus retoflexus (AMARE); assay: Post-emergence herbicidal glasshouse test; conditions: post-emergence (sprayed after 8 days cultivation), evaluated after 13 days, 100=total damage to plant, 0=no damage to plant; for POST Application AMARE, damage to plant: 1000 g/ha; for pest or weed control at 1000 g/ha: Amaranthus retroflexus, 312 h, read-out: POST Application AMARE, damage to plant
Description: as §1

[3] = tested on: Echinochloa crus-galli (ECHCG); assay: Post-emergence herbicidal glasshouse test; conditions: post-emergence (sprayed after 8 days cultivation), evaluated after 13 days, 100=total damage to plant, 0=no damage to plant; for POST Application ECHCG, damage to plant: 1000 g/ha; for pest or weed control at 1000 g/ha: Echinochloa crus-galli, 312 h, read-out: POST Application ECHCG, damage to plant
Description: as §1

Setaria faberi (SETFA) [4] = assay: Post-emergence herbicidal glasshouse test; conditions: post-emergence (sprayed after 8 days cultivation), evaluated after 13 days, 100=total damage to plant, 0=no damage to plant; for POST Application SETFA, damage to plant: 1000 g/ha; for pest or weed control at 1000 g/ha: Setaria faberi, 312 h, read-out: POST Application SETFA, damage to plant
Description: as §1

Solanum nigrum (SOLNI) [5] = assay: Post-emergence herbicidal glasshouse test; conditions: post-emergence (sprayed after 8 days cultivation), evaluated after 13 days, 100=total damage to plant, 0=no damage to plant; for POST Application SOLNI, damage to plant: 1000 g/ha; for pest or weed control at 1000 g/ha: Solanum nigrum, 312 h, read-out: POST Application SOLNI, damage to plant
Description: as §1

[6] = tested on: Alopecurus myosuroides (ALOMY); assay: Pre-emergence herbicidal glasshouse test; conditions: pre-emergence (sprayed after one day cultivation), evaluated after 13 days, 100=total damage to plant, 0=no damage to plant; for PRE Application ALOMY, damage to plant: 1000 g/ha; for pest or weed control at 1000 g/ha: Alopecurus myosuroides, 312 h, read-out: PRE Application ALOMY, damage to plant
Description: as §1

[7] = tested on: Amaranthus retoflexus (AMARE); assay: Pre-emergence herbicidal glasshouse test; conditions: pre-emergence (sprayed after one day cultivation), evaluated after 13 days, 100=total damage to plant, 0=no damage to plant; for PRE Application AMARE, damage to plant: 1000 g/ha; for pest or weed control at 1000 g/ha: Amaranthus retroflexus, 312 h, read-out: PRE Application AMARE, damage to plant
Description: as §1

[8] = tested on: Echinochloa crus-galli (ECHCG); assay: Pre-emergence herbicidal glasshouse test; conditions: pre-emergence (sprayed after one day cultivation), evaluated after 13 days, 100=total damage to plant, 0=no damage to plant; for PRE Application ECHCG, damage to plant: 1000 g/ha; for pest or weed control at 1000 g/ha: Echinochloa crus-galli, 312 h, read-out: PRE Application ECHCG, damage to plant
Description: as §1

Setaria faberi (SETFA) [9] = assay: Pre-emergence herbicidal glasshouse test; conditions: pre-emergence (sprayed after one day cultivation), evaluated after 13 days, 100=total damage to plant, 0=no damage to plant; for PRE Application SETFA, damage to plant: 1000 g/ha; for pest or weed control at 1000 g/ha: Setaria faberi, 312 h, read-out: PRE Application SETFA, damage to plant
Description: as §1

Solanum nigrum (SOLNI) [10] = assay: Pre-emergence herbicidal glasshouse test; conditions: pre-emergence (sprayed after one day cultivation), evaluated after 13 days, 100=total damage to plant, 0=no damage to plant; for PRE Application SOLNI, damage to plant: 1000 g/ha; for pest or weed control at 1000 g/ha: Solanum nigrum, 312 h, read-out: PRE Application SOLNI, damage to plant
Description: as §1

| SMILES | POST Application ALOMY, damage to plant [1] | POST Application AMARE, damage to plant [2] | POST Application ECHCG, damage to plant [3] | POST Application SETFA, damage to plant (Setaria faberi (SETFA) [4]) | POST Application SOLNI, damage to plant (Solanum nigrum (SOLNI) [5]) | PRE Application ALOMY, damage to plant [6] | PRE Application AMARE, damage to plant [7] | PRE Application ECHCG, damage to plant [8] | PRE Application SETFA, damage to plant (Setaria faberi (SETFA) [9]) | PRE Application SOLNI, damage to plant (Solanum nigrum (SOLNI) [10]) | pest or weed control at 1000 g/ha [1] [%] | pest or weed control at 1000 g/ha [2] [%] | pest or weed control at 1000 g/ha [3] [%] | pest or weed control at 1000 g/ha (Setaria faberi (SETFA) [4]) [%] | pest or weed control at 1000 g/ha (Solanum nigrum (SOLNI) [5]) [%] | pest or weed control at 1000 g/ha [6] [%] | pest or weed control at 1000 g/ha [7] [%] | pest or weed control at 1000 g/ha [8] [%] | pest or weed control at 1000 g/ha (Setaria faberi (SETFA) [9]) [%] | pest or weed control at 1000 g/ha (Solanum nigrum (SOLNI) [10]) [%] |
| --- | --- | --- | --- | --- | --- | --- | --- | --- | --- | --- | --- | --- | --- | --- | --- | --- | --- | --- | --- | --- |
| Cc1nc2nc(C(F)(F)Cl)c(C(=O)C3C(=O)CCCC3=O)cc2cc1F [Compound 1.87, 2-(2-chlorodifluoromethyl-6-fluoro-7-methyl-[1,8]-naphthyridine-3-carbonyl)-cyclohexane-1,3-dione] | 70 | 80 | 90 | 80 | 90 | 60 | 100 | 100 | 100 | 100 | – | – | – | – | – | – | – | – | – | – |
| Cc1nc2nc(C(F)(F)F)c(C(=O)C3C(=O)CCCC3=O)cc2c(C)c1F [Compound 1.88, 2-[5,7-dimethyl-6-fluoro-2-trifluoromethyl-[1,8]-naphthyridine-3-carbony]-cyclohexane-1,3-dione] | – | – | – | – | – | – | – | – | – | – | 30 | 100 | 90 | 80 | 90 | 40 | 90 | 100 | 100 | 100 |
| CN(Cc1nc2nc(C(F)(F)F)ccc2cc1C(=O)C1C(=O)CCCC1=O)S(C)(=O)=O [Compound 1.108, 2-[{methanesulfonyl-N-methylaminomethyl}-7-trifluoromethyl-[1,8]-naphthyridine-3-carbony]-cyclohexane-1,3-dione] | 20 | 70 | 80 | 80 | 90 | 0 | 80 | 70 | 40 | 90 | – | – | – | – | – | – | – | – | – | – |
| O=C1CCCC(=O)C1C(=O)c1cc2ccc(=O)n(CCC=C(F)F)c2nc1C(F)(F)F [Compound 2.2, 2-{8-(4,4-difluorobut-3-enyl)-7-oxo-7,8-dihydro-2-trifluoromethyl-[1,8]-naphthyridine-3-carbony}-cyclohexane-1,3-dione] | 70 | 100 | 90 | 90 | 100 | 60 | 70 | 90 | 90 | 90 | – | – | – | – | – | – | – | – | – | – |
| CCc1nc2nc(C(F)(F)F)c(C(=O)C3C(=O)CCCC3=O)cc2cc1F [Compound 1.67, 2-[7-ethyl-6-fluoro-2-trifluoromethyl-[1,8]-naphthyridine-3-carbony]-cyclohexane-1,3-dione] | 90 | 80 | 90 | 90 | 100 | 90 | 100 | 100 | 100 | 100 | – | – | – | – | – | – | – | – | – | – |
| Cc1c(F)cnc2nc(C(F)(F)F)c(C(=O)C3C(=O)CCCC3=O)cc12 [Compound 1.62, 2-[6-Fluoro-5-methyl-2-trifluoromethyl-[1,8]-naphthyridine-3-carbony]-cyclohexane-1,3-dione] | – | – | – | – | – | – | – | – | – | – | 0 | 50 | 70 | 70 | 80 | 0 | 20 | 50 | 30 | 60 |
| Cc1cc(Cn2c(=O)ccc3cc(C(=O)C4C(=O)CCCC4=O)c(C(F)(F)F)nc32)no1 [Compound 2.1] | 90 | 100 | 80 | 90 | 90 | 80 | 90 | 90 | 90 | 90 | – | – | – | – | – | – | – | – | – | – |
| O=C1CCCC(=O)C1C(=O)c1cc2cc(F)c(NCC(F)(F)F)nc2nc1C(F)(F)F [Compound 1.90, 2-[6-fluoro-7-(2,2,2-trifluoroethylamino)-2-trifluoromethyl-[1,8]-naphthyridine-3-carbony]-cyclohexane-1,3-dione] | – | – | – | – | – | – | – | – | – | – | 80 | 80 | 90 | 90 | 90 | 70 | 100 | 100 | 100 | 100 |
| O=C1CCCC(=O)C1C(=O)c1cc2ccc(=O)n(Cc3ccccc3F)c2nc1C(F)(F)F [Compound 2.12] | 70 | 70 | 70 | 90 | 100 | 80 | 60 | 90 | 90 | 90 | – | – | – | – | – | – | – | – | – | – |
